Assay results reported in patent US7485750B2, “Hydroxamic acid derivatives and the preparation method thereof” (Amorepacific Corporation, priority 2005, dated 2009).

How the values were obtained:
[1] = system: Human keratinocyte (HaCaT) cell line; test: Antioxidative effect: lipid peroxidation assay (MDA, 4-HNE) in t-BHP-treated HaCaT cells; assay type: cell-based; parameters: unit not given here; conditions: control without treatment = 100
Protocol: This example illustrates the antioxidative effect of the hydroxamic acid derivatives obtained in Examples 1 to 24, in comparison with tocoperol and EGCG (EpiGalloCatechin Gallate). Human keratinocyte (HaCaT) cell line was divided into 1.0×10^6 per 60 mm dish, and was cultured for 1 day at 37° C., 5% CO2, using DMEM (FBS 10%) medium containing penicillin/streptomycin, and then was treated with 10^−4 mol % of hydroxamic acid derivatives. The same treatment was performed with tocoperol and EGCG, as positive controls, of the same concentration. The next day, HaCaT cells were treated with 4 mM of BHP (t-butyl hydroperoixe), and were cultured for 4 hours at 37° C., 5% CO2, and the cells were obtained. Lysis of the cells was performed on the cells by way of repeating the freeze/thawing process. The following experiment was performed according to the method presented in the assay kit.
Cabiochem Lipid peroxidation assay kit (Cat. No. 437634) was used as reagent in the present invention, and lipid peroxidation was measured using the principle that peroxidation products of ester which relate to long chain unsaturated fatty acid, such as malondialdehyde (MDA), and 4-hydroxyalkenal, i.e., 4-hydroxy-2(E)-nonenal (4-HNE), react with the reagent to form a stable compound at 586 nm.

[2] = system: Human fibroblasts; test: Collagen biosynthesis: procollagen type (I) ELISA in human fibroblasts; assay type: cell-based; conditions: 10^-4 M in serum-free medium, 24 hours, relative value, control group = 100
Protocol: Human fibroblasts were seeded into 24-well plates at 1×10^5 cells per well and then cultured to 90% of growth. The fibroblastes were then cultured in serum-free DMEM for 24 hours and treated with 10^−4 M of the hydroxamic acid derivatives of Examples 1-24, tocoperol and EGCG, in serum-free medium, and then incubated in a CO2 incubator for 24 hours.
For each supernatant, procollagen production was measured with procollagen type (I) ELISA kit. The results are shown in Table 2, in which collagen biosynthesis was evaluated as a relative value, in consideration that the value of the control group with no material treated is 100.

[3] = system: mice; test: Contraction of skin pores in mice after topical application; assay type: in vivo; conditions: 0.5 ml of 1% solution in 1,3-butylene glycol:ethanol=7:3 applied for 1 day, back biopsied 24 hours later, control group 65
Protocol: The compounds of Examples 1-24 were dissolved in solvent (1,3-butylene glycol:ethanol=7:3) to give 1% solution of test samples. To forty-six (46) mice, 0.5 ml of the test sample solution was applied for 1 day, 24 hours later, their back part was biopsied. The epidermis was separated, then soaked in 0.5% acetic acid, then fixed in 10% formalin, and cut vertically by […]. After dying with hematoxylin and eosin, the size of skin pore was measured using Mechanical eyepiece micrometer.

[4] = HaCaT cells pretreated with 10^-4 mol % test material, next day 4 mM t-BHP for 4 hours, lipid peroxidation at 586 nm

| SMILES | MDA, HNE [1, 4] | Collagen biosynthesis (%) [2] | Size of skin pore [3] | MDA, HNE ([1]; HaCaT cells treated with 4 mM t-BHP alone for 4 hours) |
| --- | --- | --- | --- | --- |
| O=C(O[C@@H]1Cc2c(O)cc(O)cc2O[C@@H]1c1cc(O)c(O)c(O)c1)c1cc(O)c(O)c(O)c1 [EGCG, EpiGalloCatechin Gallate, reference compound] | 230 | 120% | 60 µm | – |
| COc1ccc(C(=O)Nc2ccc(C(=O)NO)cc2)cc1OC [Example 1, N-[4-(N-hydroxycarbamoyl)phenyl][3,4-dimethoxyphenyl]carboxyamide] | 190 | 123% | 56 µm | – |
| CCOc1ccc(C(=O)Nc2ccc(C(=O)NO)cc2)cc1OCC [Example 2, N-[4-(N-hydroxycarbamoyl)phenyl][3,4-diethoxyphenyl]carboxyamide] | 200 | 131% | 50 µm | – |
| CC(C)Oc1ccc(C(=O)Nc2ccc(C(=O)NO)cc2)cc1OC(C)C [Example 3, N-[4-(N-hydroxycarbamoyl)phenyl][3,4-diisopropoxyphenyl]carboxyamide] | 211 | 122% | 54 µm | – |
| CCCOc1ccc(C(=O)Nc2ccc(C(=O)NO)cc2)cc1OCCC [Example 4, N-[4-(N-hydroxycarbamoyl)phenyl][3,4-dipropoxyphenyl]carboxyamide] | 189 | 111% | 52 µm | – |
| CCCCOc1ccc(C(=O)Nc2ccc(C(=O)NO)cc2)cc1OCCCC [Example 5, N-[4-(N-hydroxycarbamoyl)phenyl][3,4-dibutoxyphenyl]carboxyamide] | 211 | 121% | 53 µm | – |
| CC(C)(C)Oc1ccc(C(=O)Nc2ccc(C(=O)NO)cc2)cc1OC(C)(C)C [Example 6, N-[4-(N-hydroxycarbamoyl)phenyl][3,4-di-tert-butoxyphenyl]carboxyamide] | 231 | 135% | 54 µm | – |
| COc1ccc(C(=O)Nc2ccc(C(=O)N(C)O)cc2)cc1OC [Example 7, [4-((3,4-dimethoxyphenyl)carbonylamino)phenyl]-N-hydroxy-N-methyl carboxyamide] | 220 | 111% | 55 µm | – |
| CCOc1ccc(C(=O)Nc2ccc(C(=O)N(C)O)cc2)cc1OCC [Example 8, [4-((3,4-diethoxyphenyl)carbonylamino)phenyl]-N-hydroxy-N-methyl carboxyamide] | 190 | 112% | 50 µm | – |
| CC(C)Oc1ccc(C(=O)Nc2ccc(C(=O)N(C)O)cc2)cc1OC(C)C [Example 9, [4-((3,4-diisopropoxyphenyl)carbonylamino)phenyl]-N-hydroxy-N-methyl carboxyamide] | 187 | 123% | 51 µm | – |
| CCCOc1ccc(C(=O)Nc2ccc(C(=O)N(C)O)cc2)cc1OCCC [Example 10, [4-((3,4-dipropoxyphenyl)carbonylamino)phenyl]-N-hydroxy-N-methyl carboxyamide] | 140 | 126% | 52 µm | – |
| CCCCOc1ccc(C(=O)Nc2ccc(C(=O)N(C)O)cc2)cc1OCCCC [Example 11, [4-((3,4-dibutoxyphenyl)carbonylamino)phenyl]-N-hydroxy-N-methylcarboxyamide] | 198 | 121% | 56 µm | – |
| CN(O)C(=O)c1ccc(NC(=O)c2ccc(OC(C)(C)C)c(OC(C)(C)C)c2)cc1 [Example 12, [4-((3,4-di-tert-butoxyphenyl)carbonylamino)phenyl]-N-hydroxy-N-methyl carboxyamide] | 176 | 123% | 54 µm | – |
| COc1ccc(C(=O)Nc2ccc(CC(=O)NO)cc2)cc1OC [Example 13, N-(4-((hydroxycarbamoyl)methyl)phenyl)-3,4-dimethoxy benzamide] | 150 | 111% | 55 µm | – |
| CCOc1ccc(C(=O)Nc2ccc(CC(=O)NO)cc2)cc1OCC [Example 14, N-(4-((hydroxycarbamyl)methyl)phenyl)-3,4-diethoxy benzamide] | 220 | 121% | 50 µm | – |
| CC(C)Oc1ccc(C(=O)Nc2ccc(CC(=O)NO)cc2)cc1OC(C)C [Example 15, N-(4-((hydroxycarbamoyl)methyl)phenyl)-3,4-diisopropoxy benzamide] | 213 | 134% | 51 µm | – |
| CCCOc1ccc(C(=O)Nc2ccc(CC(=O)NO)cc2)cc1OCCC [Example 16, N-(4-((hydroxycarbamoyl)methyl)phenyl)-3,4-dipropoxy benzamide] | 199 | 131% | 52 µm | – |
| CCCCOc1ccc(C(=O)Nc2ccc(CC(=O)NO)cc2)cc1OCCCC [Example 17, N-(4-((hydroxycarbamoyl)methyl)phenyl)-3,4-dibutoxy benzamide] | 200 | 123% | 56 µm | – |
| CC(C)(C)Oc1ccc(C(=O)Nc2ccc(CC(=O)NO)cc2)cc1OC(C)(C)C [Example 18, N-(4-((hydroxycarbamoyl)methyl)phenyl)-3,4-di-tert-butoxy benzamide] | 232 | 122% | 57 µm | – |
| COc1ccc(C(=O)Nc2ccc(CC(=O)N(C)O)cc2)cc1OC [Example 19] | 212 | 142% | 54 µm | – |
| CCOc1ccc(C(=O)Nc2ccc(CC(=O)N(C)O)cc2)cc1OCC [Example 20] | 196 | 123% | 51 µm | – |
| CC(C)Oc1ccc(C(=O)Nc2ccc(CC(=O)N(C)O)cc2)cc1OC(C)C [Example 21] | 190 | 121% | 55 µm | – |
| CCCOc1ccc(C(=O)Nc2ccc(CC(=O)N(C)O)cc2)cc1OCCC [Example 22] | 188 | 122% | 52 µm | – |
| CCCCOc1ccc(C(=O)Nc2ccc(CC(=O)N(C)O)cc2)cc1OCCCC [Example 23] | 188 | 123% | 51 µm | – |
| CN(O)C(=O)Cc1ccc(NC(=O)c2ccc(OC(C)(C)C)c(OC(C)(C)C)c2)cc1 [Example 24] | 197 | 131% | 50 µm | – |
| Cc1c(C)c2c(c(C)c1O)CC[C@@](C)(CCC[C@H](C)CCC[C@H](C)CCCC(C)C)O2 [Tocoperol, tocoperol, reference compound] | 250 | 113% | 64 µm | – |
| CC(C)(C)OO [t-BHP, t-butyl hydroperoixe, reference compound] | – | – | – | 320 |
